Laboratory results: patent US4178442A, “Novel cinnamoyles piperazines and homopiperazines, the method of preparing them and their application in therapeutics” (Delalande S. A., priority 1977, dated 1979)
Like-named read-outs stand apart in the source and are kept apart here.

System: anaesthetized dog
Assay: Antiangorous activity on anaesthetized dog: consumption of oxygen in the left ventricule and cardiac effort (KATZ's index)
Assay type: in vivo
Details: for inhibition in vivo at 2.5 mg/kg / inhibition in vivo at […] / inhibition in vivo at 0.625 mg/kg: Canis lupus familiaris, iv; for inhibition in vivo at […]: 0.15 mg/kg i.v. slow perfusion
Procedure: The antiangorous activity was tested on an anaesthetized dog (sodium pentobarbital 30 mg/kg/i.v.).
The consumption of oxygen in the left ventricule was estimated by the product of the coronary venous flow and the coronary arteriovenous difference in oxygen (% volume).
The coronary venous flow was measured at the coronary venous sinus by means of a modified Morawitz cannula, introduced under radioscopic control.
The cardiac effort was estimated according to KATZ's index, by the product of the average arterial pressure and the cardiac frequency.
The cardiac frequency was estimated from the electrocardiogram recorded with D2 derivation.
It should be noted that the compounds tested were injected intravenously with slow perfusion.

[1] = 2.5 mg/kg i.v. slow perfusion, read-out: Diminution in consumption of O2
[2] = 2.5 mg/kg i.v. slow perfusion, read-out: Diminution in the cardiac effort (IK)
[3] = read-out: Diminution in consumption of O2
[4] = read-out: Diminution in the cardiac effort (IK)
[5] = 0.625 mg/kg i.v. slow perfusion
[6] = 0.625 mg/kg i.v. slow perfusion, read-out: Diminution in consumption of O2
[7] = 0.625 mg/kg i.v. slow perfusion, read-out: Diminution in the cardiac effort (IK)

| Structure (SMILES) | Diminution in consumption of O2: in time (2.5 mg/kg i.v. slow perfusion) [min] | inhibition in vivo at 2.5 mg/kg [1] [%] | inhibition in vivo at 2.5 mg/kg [2] [%] | Diminution in the cardiac effort (IK): in time (2.5 mg/kg i.v. slow perfusion) [min] | inhibition in vivo at […] [3] [%] | inhibition in vivo at […] [4] [%] | Diminution in consumption of O2: in time [5] [min] | Diminution in the cardiac effort (IK): in time [5] [min] | inhibition in vivo at 0.625 mg/kg [6] [%] | inhibition in vivo at 0.625 mg/kg [7] [%] |
| --- | --- | --- | --- | --- | --- | --- | --- | --- | --- | --- |
| CCCc1ccc(OCC(O)CN2CCN(C(=O)/C=C/c3cc(OC)c(OC)c(OC)c3)CC2)cc1 (stereo not drawn) [780 267] | 30 | 27 | 8 |  |  |  |  |  |  |  |
| COc1cc(C(C)=O)ccc1OCC(O)CN1CCCN(C(=O)/C=C/c2cc(OC)c(OC)c(OC)c2)CC1 (stereo not drawn) [780 269] | 30 | 34 | 40 | 60 |  |  |  |  |  |  |
| COc1cc(/C=C/C(=O)N2CCCN(CC(O)COc3ccc(NC(C)=O)c4c3OCCO4)CC2)cc(OC)c1OC (stereo not drawn) [780 272] | 90 | 40 | 51 | 90 |  |  |  |  |  |  |
| CNC(=O)Nc1cc(Cl)c(OCC(O)CN2CCN(C(=O)/C=C/c3cc(OC)c(OC)c(OC)c3)CC2)c(Cl)c1 (stereo not drawn) [780 292] | 90 | 59 | 34 | 45 |  |  |  |  |  |  |
| CCCCCOC(=O)c1ccc(OCC(O)CN2CCN(C(=O)/C=C/c3cc(OC)c(OC)c(OC)c3)CC2)c2c1OCCO2 (stereo not drawn) [780 301] |  |  |  |  | 40 | 28 |  |  |  |  |
| CCCC(=O)c1ccc(OCC(O)CN2CCN(C(=O)/C=C/c3cc(OC)c(OC)c(OC)c3)CC2)cc1 (stereo not drawn) [780 302] | 30 | 46 | 14 | 30 |  |  |  |  |  |  |
| COc1cc(C=O)ccc1OCC(O)CN1CCN(C(=O)/C=C/c2cc(OC)c(OC)c(OC)c2)CC1 (stereo not drawn) [780 329] | 30 | 21 | 13 | 30 |  |  |  |  |  |  |
| COc1cc(/C=C/C(=O)N2CCN(CC(O)COc3ccc(C(=O)OC4CCCCC4)c4c3OCCO4)CC2)cc(OC)c1OC (stereo not drawn) [780 333] |  |  |  |  | 51 | 21 |  |  |  |  |
| COc1cc(/C=C/C(=O)N2CCN(CC(O)COc3c(Cl)cc(C(C)=O)cc3Cl)CC2)cc(OC)c1OC (stereo not drawn) [780 339] | 45 | 74 | 42 | 40 |  |  |  |  |  |  |
| COc1cc(/C=C/C(=O)N2CCN(CC(O)COc3ccc(NC(C)=O)c4c3OCO4)CC2)cc(OC)c1OC (stereo not drawn) [780 346] |  |  |  |  | 43 | 2 |  |  |  |  |
| COc1cc(/C=C/C(=O)N2CCN(CC(O)COc3ccc(C(C)=O)cc3F)CC2)cc(OC)c1OC (stereo not drawn) [780 353] | 15 | 46 | 16 | 15 |  |  |  |  |  |  |
| CNC(=O)Nc1cc(OC)c(OCC(O)CN2CCN(C(=O)/C=C/c3cc(OC)c(OC)c(OC)c3)CC2)c(OC)c1 (stereo not drawn) [780 357] | 15 | 43 | 21 | 15 |  |  |  |  |  |  |
| COc1cc(/C=C/C(=O)N2CCN(CC(O)COc3c(OC)cc(C(C)=O)cc3OC)CC2)cc(OC)c1OC (stereo not drawn) [780 359] |  |  |  |  |  |  | 45 | 30 | 60 | 32 |
| CCOC(=O)c1cc(OC)c(OCC(O)CN2CCN(C(=O)/C=C/c3cc(OC)c(OC)c(OC)c3)CC2)c(OC)c1 (stereo not drawn) [780 361] | 30 | 68 | 38 | 45 |  |  |  |  |  |  |
| COc1cc(/C=C/C(=O)N2CCN(CC(O)COc3ccc(C(=O)OC(C)(C)C)c4c3OCCO4)CC2)cc(OC)c1OC (stereo not drawn) [780 369] |  |  |  |  |  |  | 15 | 15 | 37 | 4 |
| COc1cc(/C=C/C(=O)N2CCN(CC(O)COc3ccc(C(=O)OC(C)C)c4c3OCCO4)CC2)cc(OC)c1OC (stereo not drawn) [780 373] | 30 | 66 | 25 | 30 |  |  |  |  |  |  |
| CNC(=O)Nc1ccc(OCC(O)CN2CCCN(C(=O)/C=C/c3cc(OC)c(OC)c(OC)c3)CC2)c2c1OCCO2 (stereo not drawn) [780 374] | 30 | 39 | 31 | 15 |  |  |  |  |  |  |
| COc1cc(/C=C/C(=O)N2CCN(CC(O)CSc3ccc(C(C)=O)c4c3OCCO4)CC2)cc(OC)c1OC (stereo not drawn) [780 384] |  |  |  |  | 43 | 25 |  |  |  |  |
